According to US20240374591A1, “CEREBLON BINDING COMPOUNDS, COMPOSITIONS THEREOF, AND METHODS OF TREATMENT THEREWITH” (CELGENE CORPORATION, priority 2021, published 2024):

Target: T1, AR in VCaP cells (Homo sapiens, UniProt P10275)
T1 construct: endogenous in cells; host or cells: VCaP cells
T1 sequence (P10275 1-920): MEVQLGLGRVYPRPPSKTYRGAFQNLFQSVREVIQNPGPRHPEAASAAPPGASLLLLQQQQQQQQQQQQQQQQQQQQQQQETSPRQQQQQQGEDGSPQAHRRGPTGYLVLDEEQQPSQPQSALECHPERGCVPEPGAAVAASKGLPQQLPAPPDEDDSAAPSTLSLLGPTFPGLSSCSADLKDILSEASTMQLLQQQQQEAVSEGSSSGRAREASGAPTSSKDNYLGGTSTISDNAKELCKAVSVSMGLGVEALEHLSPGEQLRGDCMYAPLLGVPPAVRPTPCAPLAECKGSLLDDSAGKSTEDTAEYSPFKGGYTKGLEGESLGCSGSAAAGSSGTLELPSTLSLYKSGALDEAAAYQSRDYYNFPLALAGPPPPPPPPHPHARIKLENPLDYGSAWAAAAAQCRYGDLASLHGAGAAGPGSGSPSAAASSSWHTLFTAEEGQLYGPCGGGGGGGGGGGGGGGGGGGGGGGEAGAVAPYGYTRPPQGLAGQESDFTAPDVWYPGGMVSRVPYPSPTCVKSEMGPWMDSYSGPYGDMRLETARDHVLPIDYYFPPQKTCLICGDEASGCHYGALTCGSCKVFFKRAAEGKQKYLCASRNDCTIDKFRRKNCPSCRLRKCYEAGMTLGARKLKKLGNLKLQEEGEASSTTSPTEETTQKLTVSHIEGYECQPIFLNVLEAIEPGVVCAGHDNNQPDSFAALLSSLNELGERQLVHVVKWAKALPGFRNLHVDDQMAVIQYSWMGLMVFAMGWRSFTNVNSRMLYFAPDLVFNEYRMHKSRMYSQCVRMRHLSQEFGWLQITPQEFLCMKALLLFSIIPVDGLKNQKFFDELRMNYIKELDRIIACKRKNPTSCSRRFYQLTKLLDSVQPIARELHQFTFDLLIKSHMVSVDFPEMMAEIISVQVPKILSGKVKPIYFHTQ
Assay: VCAP AR Degradation Assay (AR ELISA, 24 h)
Format: cell-based
Conditions: for DC50: concentration giving 50% AR degradation vs DMSO control; for remaining activity at up to 5 µM: lowest measured AR level normalized to DMSO control, top concentration 5 μM, read-out: Y
Description: VCAP AR Degradation Assay. Test compounds were pre-dispensed into a Corning CellBind 96-well clear bottom plate (Cat #3300) using an acoustic dispenser to make a 10-point concentration series at 1:3 dilution for each compound. The final top concentration of each compound was 5 μM. DMSO at a final concentration of 0.1% was used as a control. VCaP cells cultured in DMEM with 8% fetal bovine serum (FBS) were seeded at 50K cells per well in a 200 μL volume into the compound plate and incubated at 37° C. in a CO2 incubator for 24 h. The medium was carefully removed from the cells and the plate was placed on ice. One hundred μL of ice-cold 1× cell lysis buffer from Cell Signaling Technologies (Cat #9803) was added to each well of the cells and the plate was incubated at 4° C. on a shaker for 1 h. Fifteen μL of cell lysate was used for AR ELISA detection using a PathScan Total Sandwich AR ELISA kit (Cell Signaling Technology, Cat #12580). AR levels in compound-treated wells were normalized to that of DMSO control and expressed as percent of control (PoC) (y). A Four Parameter Logistic Model (Sigmoidal Dose-Response Model) was used to determine the compound's DC50, and EC50, using the following equation: […]
The lowest measured AR level normalized to DMSO control in response to compound treatment, termed Y value, was used to characterize the compound-mediated AR degradation efficiency.

SMILES	DC50 [nM]	remaining activity at up to 5 µM [%]
C[C@@H]1C[C@H](OCCC[C@H]2CC[C@H](N3C(=S)N(c4cnc(C#N)c(C(F)(F)F)c4)C(=O)C3(C)C)CC2)C[C@H](C)N1CC(=O)Nc1ccc(C2CCC(=O)NC2=O)nc1 (stereo partly drawn) [Cmpd 26, 2-((2R,4r,6S)-4-(3-((trans)-4-(3-(6-Cyano-5-(trifluoromethyl)pyridin-3-yl)-5,5-dimethyl-4-oxo-2-thioxoimidazolidin-1-yl)cyclohexyl)propoxy)-2,6-dimethylpiperidin-1-yl)-N-(6-(2,6-dioxopiperidin-3-yl)pyridin-3-yl)acetamide]	≤ 5	0 to 20
C[C@@H]1C[C@H](OCC[C@H]2CC[C@H](N3C(=S)N(c4ccc(C#N)c(C(F)(F)F)c4)C(=O)C3(C)C)CC2)C[C@H](C)N1CC(=O)Nc1ccc(C2CCC(=O)NC2=O)nc1 (stereo partly drawn) [Cmpd 27, 2-((2R,4r,6S)-4-(2-((trans)-4-(3-(4-Cyano-3-(trifluoromethyl)phenyl)-5,5-dimethyl-4-oxo-2-thioxoimidazolidin-1-yl)cyclohexyl)ethoxy)-2,6-dimethylpiperidin-1-yl)-N-(6-(2,6-dioxopiperidin-3-yl)pyridin-3-yl)acetamide]	5 to 10	20 to 30
C[C@@H]1C[C@H](OCCO[C@H]2CC[C@H](N3C(=S)N(c4ccc(C#N)c(C(F)(F)F)c4)C(=O)C3(C)C)CC2)C[C@H](C)N1CC(=O)Nc1ccc(C2CCC(=O)NC2=O)nc1 (stereo partly drawn) [Cmpd 29, 2-((2R,4r,6S)-4-(2-(((trans)-4-(3-(4-Cyano-3-(trifluoromethyl)phenyl)-5,5-dimethyl-4-oxo-2-thioxoimidazolidin-1-yl)cyclohexyl)oxy)ethoxy)-2,6-dimethylpiperidin-1-yl)-N-(6-(2,6-dioxopiperidin-3-yl)pyridin-3-yl)acetamide]	≤ 5	20 to 30
CC1(C)C(=O)N(c2ccc(C#N)c(C(F)(F)F)c2)C(=S)N1[C@H]1CC[C@H](OCCC2CCN(CC(=O)Nc3ccc(C4CCC(=O)NC4=O)nc3)CC2(F)F)CC1 (stereo partly drawn) [Cmpd 31, 2-(4-(2-(((trans)-4-(3-(4-Cyano-3-(trifluoromethyl)phenyl)-5,5-dimethyl-4-oxo-2-thioxoimidazolidin-1-yl)cyclohexyl)oxy)ethyl)-3,3-difluoropiperidin-1-yl)-N-(6-(2,6-dioxopiperidin-3-yl)pyridin-3-yl)acetamide]	≤ 5	0 to 20

Other lines, results leading:

DC50 [nM]	remaining activity at up to 5 µM [%]	SMILES
≤ 5	20 to 30	C[C@@H]1C[C@H](OCC[C@H]2CC[C@H](N3C(=S)N(c4cnc(C#N)c(C(F)(F)F)c4)C(=O)C3(C)C)CC2)C[C@H](C)N1CC(=O)Nc1ccc(C2CCC(=O)NC2=O)nc1 (stereo partly drawn) [Cmpd 28, 2-((2R,4r,6S)-4-(2-((trans)-4-(3-(6-Cyano-5-(trifluoromethyl)pyridin-3-yl)-5,5-dimethyl-4-oxo-2-thioxoimidazolidin-1-yl)cyclohexyl)ethoxy)-2,6-dimethylpiperidin-1-yl)-N-(6-(2,6-dioxopiperidin-3-yl)pyridin-3-yl)acetamide]
≤ 5	0 to 20	C[C@@H]1C[C@H](OCCO[C@H]2CC[C@H](N3C(=S)N(c4cnc(C#N)c(C(F)(F)F)c4)C(=O)C3(C)C)CC2)C[C@H](C)N1CC(=O)Nc1ccc(C2CCC(=O)NC2=O)nc1 (stereo partly drawn) [Cmpd 30, 2-((2R,4r,6S)-4-(2-(((trans)-4-(3-(6-Cyano-5-(trifluoromethyl)pyridin-3-yl)-5,5-dimethyl-4-oxo-2-thioxoimidazolidin-1-yl)cyclohexyl)oxy)ethoxy)-2,6-dimethylpiperidin-1-yl)-N-(6-(2,6-dioxopiperidin-3-yl)pyridin-3-yl)acetamide]
≤ 5	0 to 20	CC1(C)C(=O)N(c2cnc(C#N)c(C(F)(F)F)c2)C(=S)N1[C@H]1CC[C@H](OCCC2CCN(CC(=O)Nc3ccc(C4CCC(=O)NC4=O)nc3)CC2(F)F)CC1 (stereo partly drawn) [Cmpd 32, 2-(4-(2-(((trans)-4-(3-(6-Cyano-5-(trifluoromethyl)pyridin-3-yl)-5,5-dimethyl-4-oxo-2-thioxoimidazolidin-1-yl)cyclohexyl)oxy)ethyl)-3,3-difluoropiperidin-1-yl)-N-(6-(2,6-dioxopiperidin-3-yl)pyridin-3-yl)acetamide]
